Results reported in patent US10323060B2, “Benzoic acid derivatives of bile acid as FXR/TGR5 agonists and methods of use thereof” (ENANTA PHARMACEUTICALS, INC., priority 2016, dated 2019).

Biological target: human FXR (NR1H4) (Homo sapiens (Human), UniProt Q96RI1)
Test: Human FXR (NR1H4) Assay (luciferase reporter, Indigo Bioscience kit); for Efficacy (%): efficacy normalized to CDCA set as 100%
Assay type: cell-based
Conditions: for EC50: FXR agonistic potency range, CHO reporter cells expressing human NR1H4, 22 hours incubation; for Emax: read-out: Efficacy (%)
Description: Assays Human FXR (NR1H4) Assay
Determination of a ligand mediated Gal4 promoter driven transactivation to quantify ligand binding mediated activation of FXR. FXR Reporter Assay kit purchased from Indigo Bioscience (Catalogue number: IB00601) to determine the potency and efficacy of compound developed by Enanta that can induce FXR activation. The principle application of this reporter assay system is to quantify functional activity of human FXR. The assay utilizes non-human mammalian cells, CHO (Chinese hamster ovary) cells engineered to express human NR1H4 protein (referred to as FXR). Reporter cells also incorporate the cDNA encoding beetle luciferase which catalyzes the substrates and yields photon emission. Luminescence intensity of the reaction is quantified using a plate-reading luminometer, Envision. Reporter Cells include the luciferase reporter gene functionally linked to an FXR responsive promoter. Thus, quantifying changes in luciferase expression in the treated reporter cells provides a sensitive surrogate measure of the changes in FXR activity. […] The assay is according to the manufacturer's instructions. In brief, the assay was performed in white, 96 well plates using final volume of 100 ul containing cells with different doses of compounds. Retrieve Reporter Cells from −80° C. storage. Perform a rapid thaw of the frozen cells by transferring a 10 ml volume of 37° C. cell recovery medium into the tube of frozen cells. Recap the tube of Reporter Cells and immediately place it in a 37° C. water bath for 5-10 minutes. Retrieve the tube of Reporter Cell Suspension from the water bath. Sanitize the outside surface of the tube with a 70% alcohol swab, and then transfer it into the cell culture hood. Dispense 90 μl of cell suspension into each well of the 96-well Assay Plate. Transfer the plate into 37° C. incubator, allowing the cells adherent to the bottom of the well. Dilute compounds in Dilution Plate (DP), and administrate to cells at Assay Plate (AP). DMSO content of the samples was kept at 0.2%. Cells were incubated for additional 22 hours before luciferase activities were measured. Thirty minutes before intending to quantify FXR activity, remove Detection Substrate and Detection Buffer from the refrigerator and place them in a low-light area so that they may equilibrate to room temperature. Remove the plate's lid and discard all media contents by ejecting it into an appropriate waste container. Gently tap the inverted plate onto a clean absorbent paper towel to remove residual droplets. Cells will remain tightly adhered to well bottoms. Add 100 μl of luciferase detection reagent to each well of the assay plate. Allow the assay plate to rest at room temperature for at least 5 minutes following the addition of LDR. Set the instrument (Envision) to perform a single 5 second “plate shake” prior to reading the first assay well. Read time may be 0.5 second (500 mSec) per well.

Chain of human FXR (NR1H4) (Q96RI1 whole entry): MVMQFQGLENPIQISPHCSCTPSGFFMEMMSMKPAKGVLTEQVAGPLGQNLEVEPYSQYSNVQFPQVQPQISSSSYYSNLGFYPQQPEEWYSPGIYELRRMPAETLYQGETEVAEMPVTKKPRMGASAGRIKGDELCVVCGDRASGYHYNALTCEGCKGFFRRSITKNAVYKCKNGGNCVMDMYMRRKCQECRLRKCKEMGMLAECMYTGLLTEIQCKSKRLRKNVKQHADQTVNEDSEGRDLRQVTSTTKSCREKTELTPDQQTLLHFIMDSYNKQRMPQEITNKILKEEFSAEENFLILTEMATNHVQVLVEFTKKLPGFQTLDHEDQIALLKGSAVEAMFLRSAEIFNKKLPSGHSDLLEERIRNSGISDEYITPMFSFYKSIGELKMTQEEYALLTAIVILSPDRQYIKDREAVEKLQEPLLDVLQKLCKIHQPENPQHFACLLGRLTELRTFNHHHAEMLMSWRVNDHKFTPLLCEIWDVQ

| SMILES | EC50 [nM] | Emax [%] |
| --- | --- | --- |
| CC[C@H]1[C@@H](O)[C@@H]2[C@H](CC[C@]3(C)[C@@H]([C@H](C)C/C=C/c4ccccc4-c4nnn[nH]4)CC[C@@H]23)[C@@]2(C)CC[C@@H](O)C[C@@H]12 [Example 30] | 100 to 1000 | 332 |
| CC[C@H]1[C@@H](O)[C@@H]2[C@H](CC[C@]3(C)[C@@H]([C@H](C)Cc4nc5cccc(C(=O)OC)c5[nH]4)CC[C@@H]23)[C@@]2(C)CC[C@@H](O)C[C@@H]12 [Example 31] | 1000 to 10000 | 34 |
| CC[C@H]1[C@@H](O)[C@@H]2[C@H](CC[C@]3(C)[C@@H]([C@H](C)Cc4nc5cccc(C(=O)O)c5[nH]4)CC[C@@H]23)[C@@]2(C)CC[C@@H](O)C[C@@H]12 [Example 32] | 1000 to 10000 | 24 |
| CC[C@H]1[C@@H](O)[C@@H]2[C@H](CC[C@]3(C)[C@@H]([C@H](C)CC4CC4c4cccc(C(=O)O)c4)CC[C@@H]23)[C@@]2(C)CC[C@@H](O)C[C@@H]12 (stereo partly drawn) [Example 33] | 1000 to 10000 | 229 |
| CC[C@H]1[C@@H](O)[C@@H]2[C@H](CC[C@]3(C)[C@@H]([C@H](C)CC4CC4c4ccc(C(=O)O)cc4)CC[C@@H]23)[C@@]2(C)CC[C@@H](O)C[C@@H]12 (stereo partly drawn) [Example 34] | 1000 to 10000 | 195 |
| CC[C@H]1[C@@H](O)[C@@H]2[C@H](CC[C@]3(C)[C@@H]([C@H](C)CCOc4ccc(F)cc4C(=O)O)CC[C@@H]23)[C@@]2(C)CC[C@@H](O)C[C@@H]12 [Example 35] | 100 to 1000 | 203 |
